Assay results taken from PubChem BioAssay (NCI).
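Following 48 hours of exposure in 96-well plates, responses at five concentrations were used to interpolate endpoints linearly. TGI marks complete inhibition of growth.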

What was measured:
Assay in all cases: NCI tumour cell line growth inhibition, 48 h
[1] = test system: MALME-3M melanoma
[2] = test system: NCI-H226 lung
[3] = test system: SN12C renal
[4] = test system: NCI-H460 lung
[5] = test system: SK-OV-3 ovarian
[6] = test system: OVCAR-3 ovarian
[7] = test system: HOP-62 NSCLC
[8] = test system: OVCAR-5 ovarian
[9] = test system: MCF7 breast
[10] = test system: LOX IMVI melanoma
[11] = test system: SR leukemia
[12] = test system: DU-145 prostate
[13] = test system: NCI-H23 lung
[14] = test system: COLO 205 colon
[15] = test system: T-47D breast
[16] = test system: NCI-H522 lung
[17] = test system: MDA-MB-231 breast
[18] = test system: UACC-62 melanoma
[19] = test system: IGROV1 ovarian
[20] = test system: 786-0 renal
[21] = test system: SK-MEL-2 melanoma
[22] = test system: BT-549 breast
[23] = test system: HCT-15 colon
[24] = test system: PC-3 prostate
[25] = test system: CCRF-CEM leukemia
[26] = test system: K-562 leukemia
[27] = test system: SNB-75 CNS
[28] = test system: ACHN renal
[29] = test system: A549 NSCLC
[30] = test system: EKVX NSCLC
[31] = test system: OVCAR-4 ovarian
[32] = test system: CAKI-1 renal
[33] = test system: TK-10 renal
[34] = test system: RPMI-8226 leukemia
[35] = test system: SW-620 colon
[36] = test system: A498 renal
[37] = test system: KM12 colon
[38] = test system: SF-268 CNS
[39] = test system: SF-539 CNS
[40] = test system: MDA-MB-435
[41] = test system: RXF 393 renal
[42] = test system: HCC-2998 colon
[43] = test system: SK-MEL-5 melanoma
[44] = test system: HT29 colon
[45] = test system: HOP-92 NSCLC
[46] = test system: SNB-19 CNS
[47] = test system: OVCAR-8 ovarian
[48] = test system: MOLT-4 leukemia
[49] = test system: M14 melanoma
[50] = test system: U251 CNS
[51] = test system: UACC-257 melanoma
[52] = test system: MDA-N
[53] = test system: SF-295 CNS
[54] = test system: HS 578T breast
[55] = test system: SK-MEL-28 melanoma
[56] = test system: HCT-116 colon
[57] = test system: HL-60(TB) leukemia
[58] = test system: NCI/ADR-RES ovarian
[59] = test system: UO-31 renal

CSc1nc2ccccc2c(=O)n1-c1cccc(C)c1
TGI [1]: > 100 µM
TGI [2]: > 100 µM
TGI [3]: > 100 µM
TGI [4]: > 100 µM
TGI [5]: > 100 µM
TGI [6]: > 100 µM
TGI [7]: > 100 µM
TGI [8]: > 100 µM
TGI [9]: > 100 µM
TGI [10]: > 100 µM
TGI [11]: 49.7 µM
TGI [12]: > 100 µM
TGI [13]: > 100 µM
TGI [14]: > 100 µM
TGI [15]: > 100 µM
TGI [16]: > 100 µM
TGI [17]: > 100 µM
TGI [18]: > 100 µM
TGI [19]: > 100 µM
TGI [20]: > 100 µM
TGI [21]: > 100 µM
TGI [22]: > 100 µM
TGI [23]: > 100 µM
TGI [24]: > 100 µM
TGI [25]: > 100 µM
TGI [26]: > 100 µM
TGI [27]: > 100 µM
TGI [28]: > 100 µM
TGI [29]: > 100 µM
TGI [30]: > 100 µM
TGI [31]: > 100 µM
TGI [32]: > 100 µM
TGI [33]: > 100 µM
TGI [34]: > 100 µM
TGI [35]: > 100 µM
TGI [36]: 92 µM
TGI [37]: > 100 µM
TGI [38]: > 100 µM
TGI [39]: > 100 µM
TGI [40]: > 100 µM
TGI [41]: > 100 µM
TGI [42]: 35.1 µM
TGI [43]: 66.2 µM
TGI [44]: > 100 µM
TGI [45]: > 100 µM
TGI [46]: > 100 µM
TGI [47]: > 100 µM
TGI [48]: 98.2 µM
TGI [49]: > 100 µM
TGI [50]: > 100 µM
TGI [51]: > 100 µM
TGI [52]: 72.5 µM
TGI [53]: > 100 µM
TGI [54]: > 100 µM
TGI [55]: > 100 µM
TGI [56]: > 100 µM
TGI [57]: 9.77 µM
TGI [58]: > 100 µM

CC(=O)C(CN1CCOCC1)C(c1ccccc1)c1c(O)c2ccccc2oc1=O (stereo not drawn)
TGI [1]: > 100 µM
TGI [2]: > 100 µM
TGI [3]: > 100 µM
TGI [4]: > 100 µM
TGI [5]: > 100 µM
TGI [6]: > 100 µM
TGI [7]: > 100 µM
TGI [8]: > 100 µM
TGI [9]: > 100 µM
TGI [10]: > 100 µM
TGI [11]: > 100 µM
TGI [12]: > 100 µM
TGI [13]: > 100 µM
TGI [14]: > 100 µM
TGI [15]: > 100 µM
TGI [16]: > 100 µM
TGI [17]: > 100 µM
TGI [18]: > 100 µM
TGI [19]: > 100 µM
TGI [20]: > 100 µM
TGI [21]: > 100 µM
TGI [22]: > 100 µM
TGI [23]: > 100 µM
TGI [24]: > 100 µM
TGI [25]: > 100 µM
TGI [26]: > 100 µM
TGI [27]: > 100 µM
TGI [28]: > 100 µM
TGI [29]: > 100 µM
TGI [30]: > 100 µM
TGI [31]: > 100 µM
TGI [32]: > 100 µM
TGI [33]: > 100 µM
TGI [34]: 96.4 µM
TGI [35]: > 100 µM
TGI [36]: > 100 µM
TGI [37]: > 100 µM
TGI [38]: > 100 µM
TGI [39]: > 100 µM
TGI [40]: > 100 µM
TGI [41]: > 100 µM
TGI [42]: > 100 µM
TGI [43]: > 100 µM
TGI [44]: > 100 µM
TGI [45]: > 100 µM
TGI [46]: > 100 µM
TGI [59]: > 100 µM
TGI [47]: > 100 µM
TGI [48]: > 100 µM
TGI [49]: > 100 µM
TGI [50]: > 100 µM
TGI [51]: > 100 µM
TGI [52]: > 100 µM
TGI [53]: > 100 µM
TGI [54]: > 100 µM
TGI [55]: > 100 µM
TGI [56]: > 100 µM
TGI [57]: > 100 µM
TGI [58]: > 100 µM

COC(=O)c1c(OC(C)=O)ccc2c1c1c(n2Cc2ccccc2)C(=O)c2ccccc2C1=O
TGI [1]: 50.7 µM
TGI [2]: 49.3 µM
TGI [3]: 37.5 µM
TGI [4]: > 100 µM
TGI [5]: 66.9 µM
TGI [6]: 36.3 µM
TGI [7]: 44.5 µM
TGI [8]: 41.3 µM
TGI [9]: > 100 µM
TGI [11]: 64.5 µM
TGI [12]: 36.5 µM
TGI [13]: 42.1 µM
TGI [14]: 30.5 µM
TGI [15]: 56.3 µM
TGI [16]: 46.6 µM
TGI [17]: 36.8 µM
TGI [18]: 48.8 µM
TGI [19]: 50.4 µM
TGI [20]: 52.4 µM
TGI [21]: 36.2 µM
TGI [22]: 48.5 µM
TGI [23]: 41.9 µM
TGI [24]: 59.8 µM
TGI [25]: 68.6 µM
TGI [26]: 87.3 µM
TGI [27]: 52.4 µM
TGI [28]: > 100 µM
TGI [29]: 83.9 µM
TGI [30]: 48.3 µM
TGI [31]: 74.2 µM
TGI [32]: 51.2 µM
TGI [33]: 95.4 µM
TGI [34]: 36.4 µM
TGI [36]: 43.6 µM
TGI [37]: 47.4 µM
TGI [38]: 78.1 µM
TGI [39]: 33.7 µM
TGI [40]: 35.8 µM
TGI [41]: 37.8 µM
TGI [42]: 30.3 µM
TGI [43]: 28.1 µM
TGI [44]: 32.3 µM
TGI [45]: 39.8 µM
TGI [46]: 97.1 µM
TGI [59]: > 100 µM
TGI [47]: 89.1 µM
TGI [48]: > 100 µM
TGI [49]: 47.5 µM
TGI [50]: 42.4 µM
TGI [51]: 26.8 µM
TGI [52]: 38.3 µM
TGI [53]: 38.5 µM
TGI [54]: 48.3 µM
TGI [55]: 41.2 µM
TGI [56]: 34.2 µM
TGI [57]: 57.2 µM
TGI [58]: 61.6 µM

CC(C)c1cc(C(C)C)c(P2(=O)CC3C(Cl)(Cl)C3(C)C2)c(C(C)C)c1 (stereo not drawn)
TGI [1]: 33.2 µM
TGI [2]: 34.3 µM
TGI [3]: 29.3 µM
TGI [4]: 24.4 µM
TGI [5]: 31.3 µM
TGI [6]: 20.4 µM
TGI [7]: 29 µM
TGI [8]: 30.5 µM
TGI [9]: 19.5 µM
TGI [10]: 21.5 µM
TGI [11]: 3.75 µM
TGI [12]: 28.9 µM
TGI [13]: 24.3 µM
TGI [14]: 25 µM
TGI [15]: 27.7 µM
TGI [16]: 4 µM
TGI [17]: 24.8 µM
TGI [18]: 21.3 µM
TGI [19]: 29.5 µM
TGI [20]: 14.6 µM
TGI [21]: 24.8 µM
TGI [22]: 27.7 µM
TGI [23]: 25.1 µM
TGI [24]: 17.8 µM
TGI [25]: 6.03 µM
TGI [26]: > 44.1 µM
TGI [27]: 24.8 µM
TGI [28]: 25.1 µM
TGI [29]: 25.6 µM
TGI [30]: 31 µM
TGI [31]: 11.8 µM
TGI [32]: 9.6 µM
TGI [33]: 24.5 µM
TGI [34]: > 25.5 µM
TGI [35]: 26.4 µM
TGI [36]: 26.9 µM
TGI [37]: 28.4 µM
TGI [38]: 25.3 µM
TGI [39]: 27.1 µM
TGI [40]: 26.8 µM
TGI [41]: 28.2 µM
TGI [42]: 26.9 µM
TGI [43]: 22.4 µM
TGI [44]: 24.6 µM
TGI [45]: 27.3 µM
TGI [46]: 19.4 µM
TGI [59]: 3.44 µM
TGI [47]: 27.8 µM
TGI [48]: > 23.1 µM
TGI [49]: 23.2 µM
TGI [50]: 22 µM
TGI [51]: 20.9 µM
TGI [52]: 27.1 µM
TGI [53]: 18.6 µM
TGI [54]: 47.8 µM
TGI [55]: 31.9 µM
TGI [56]: 20.2 µM
TGI [57]: 10.7 µM
TGI [58]: 16 µM
